Test results published in US20080090847A1, “HETEROCYCLIC COMPOUNDS AND USES THEREOF AS D-ALANYL-D-ALANINE LIGASE INHIBITORS” (PLIVA D.D., priority 2001, published 2008).
Read-outs that look alike come from different tables or passages of the source.

Tests used:
Type in all cases: biochemical
[1] = molecular target: Staph ligase (D-Ala-D-Ala ligase) (Staphylococcus aureus, UniProt Q5HEB7); experiment: D-Ala-D-Ala ligase Ki determination (PK/LDH coupled assay), Staph ligase
Description: (§1) Inhibition of D-Ala-D-Ala ligase can be assayed for using the pyruvate kinase/lactate dehydrogenase (PK/LDH) assay described in Example 2, and as described in the literature (e.g., in Sarthy et al., Anal. Biochem., 254:288-290, 1997). In the bacterial cell wall synthesis process, the ligase catalyzes the conversion of adenosine triphosphate (ATP) to adenosine diphosphate (ADP) concurrent with the ligation of two D-alanine residues to form D-alanyl-D-alanine. PK then regenerates ATP from the ADP thus created simultaneously with the conversion of phosphopyruvate to pyruvate. LDH catalyzes the reduction of pyruvate to lactate by converting NADH to NAD^+. By monitoring the production rate of NAD^+ (e.g., using UV/Vis spectroscopy), D-Ala-D-Ala ligase activity can be ascertained.
(§2) The protein sequence for the enzyme D-ala-D-ala ligase has been determined in a variety of different bacterial species using standard techniques in biochemistry (see Table 5). The protein sequence from any species can be overexpressed in an appropriate host organism such as E. coli using standard molecular biology techniques. The ligase enzyme can be harvested, purified, and used in the above described assay for the determination of inhibitory activity.
(§3) The synthetic analogs of Example 1 were dissolved in dimethylsulfoxide (DMSO) at a concentration of 100 mM on the day of screening, using a vortex mixer and sonication if necessary for dissolution. The solutions were kept at room temperature until screening was completed.
(§4) A 10 mM NADH (Sigma) stock solution was prepared freshly on the day of screening by dissolving 32 μmol NADH in 3.2 ml double-distilled water. The NADH solution was kept on ice. Stock solutions containing 50 mM phosphoenolpyruvate (PEP; Sigma), 500 μM HERMES, 30 mM adenosine triphosphate (ATP; Sigma), 200 mM D-alanine (Sigma), and 4× core buffer (i.e., 400 mM Hepes, 40 mM magnesium chloride, and 40 mM potassium chloride), were also stored on ice. A stock solution of pyruvate kinase/lactate dehydrogenase (PK/LDH) was also obtained from Sigma.
(§5) Table of Final concentrations are dependent on the type of screening:
(§6) For each set of test compounds, two 96-well plates were used: an inhibitor plate and an enzyme plate. The test compounds correspond to rows A-G of the plates. Adenosine (Sigma) dissolved in DMSO, used as a control, corresponds to row H of each plate.
(§7) The enzyme solution was allowed to equilibrate to 25° C.
(§8) Dilutions were prepared in the inhibitor plate as follows: 50 μl DMSO was added to each well of columns 1-11, rows A-G, of the inhibitor plate. 50 μl DMSO were added to each well of columns 1-11, row H. 100 μl of the 100 mM test solutions were added to column 12, rows A-G (i.e., the first compound in row A, the second compound in row B, and so on). 100 μl of a 100 mM Adenosine solution was added to column 12, row H.
(§9) 50 μl of the test solution was transferred from column 12 in each row to column 11 of the a same row, mixing the solution with the DMSO. 50 μl of solution was then transferred from column 11 in each row to column 10 in the same row, 50 μl from column 10 was transferred to column 9, and so on, down to column 2. No solution was transferred to column 1. Multichannel pipettors were used in making the serial dilution.
(§10) 120 μl of the enzyme solution was added to each well of the enzyme plate.
(§11) The substrate solutions were brought to 25° C.
(§12) The analogs and enzymes were then incubated at 25° C. Since the reactions were initiated in columns, the analog addition is also in columns. At t=0 minutes, 5 μl analog was transferred from each well of columns 1-4 of the inhibitor plate to the corresponding well of the enzyme plate. At t=4 minutes, 5 μl analog was transferred from each well of columns 5-8 of the inhibitor plate to the corresponding well of the enzyme plate. At t=8 minutes, 5 μl analog was transferred from each well of columns 9-12 of the inhibitor plate to the corresponding well of the enzyme plate. The inhibitor plate was then frozen. […]

[2] = molecular target: H. Influenzae ligase (D-Ala-D-Ala ligase) (Haemophilus influenzae, UniProt P44405); experiment: D-Ala-D-Ala ligase Ki determination (PK/LDH coupled assay), H. influenzae ligase; conditions: for Ki: Ki/ATP, avg, read-out: H. Influenzae ligase Ki/ATP (uM) avg
Chain of H. Influenzae ligase (D-Ala-D-Ala ligase) (P44405 whole entry): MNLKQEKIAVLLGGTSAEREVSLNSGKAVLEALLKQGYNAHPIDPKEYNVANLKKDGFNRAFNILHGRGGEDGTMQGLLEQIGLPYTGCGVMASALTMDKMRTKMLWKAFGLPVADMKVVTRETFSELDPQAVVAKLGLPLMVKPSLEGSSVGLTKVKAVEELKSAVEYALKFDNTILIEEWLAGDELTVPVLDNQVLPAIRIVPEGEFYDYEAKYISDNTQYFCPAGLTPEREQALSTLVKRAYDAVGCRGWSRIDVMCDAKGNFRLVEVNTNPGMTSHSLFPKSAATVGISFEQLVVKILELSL
Description: as §1, §2, §3, §4, §5, §6, §7, §8, §9, §10, §11, §12

[3] = molecular target: T1, Strep ligase (D-Ala-D-Ala ligase) (Streptococcus pneumoniae serotype 4, UniProt P0CB57); experiment: D-Ala-D-Ala ligase Ki determination (PK/LDH coupled assay), Strep ligase; conditions: for Ki: Ki/ATP, avg, read-out: Strep ligase Ki/ATP (uM) avg
T1 sequence (P0CB57 1-347): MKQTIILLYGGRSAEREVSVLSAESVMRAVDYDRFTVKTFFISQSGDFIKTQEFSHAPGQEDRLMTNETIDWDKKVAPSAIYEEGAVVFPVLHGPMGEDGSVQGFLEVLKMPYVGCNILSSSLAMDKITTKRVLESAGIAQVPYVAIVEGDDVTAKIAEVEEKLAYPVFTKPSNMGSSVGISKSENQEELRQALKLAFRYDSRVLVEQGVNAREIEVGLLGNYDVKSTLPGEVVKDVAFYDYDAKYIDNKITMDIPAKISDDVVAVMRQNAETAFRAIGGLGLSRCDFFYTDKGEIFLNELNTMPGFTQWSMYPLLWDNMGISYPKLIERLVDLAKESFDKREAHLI
Description: as §1, §2, §3, §4, §5, §6, §7, §8, §9, §10, §11, §12

[4] = molecular target: E. coli ligase (D-Ala-D-Ala ligase) (Escherichia coli, UniProt P07862); experiment: D-Ala-D-Ala ligase Ki determination (PK/LDH coupled assay), E. coli ligase
Description: as §1, §2, §3, §4, §5, §6, §7, §8, §9, §10, §11, §12

[5] = Table 5, Ki/ATP, avg, read-out: Staph ligase Ki/ATP (uM) avg
[6] = E. coli ligase Ki/ATP (uM) avg, Table 5, Ki/ATP, avg
[7] = Table 2, read-out: Staph ligase
[8] = Table 1, read-out: Ki (E. coli ligase)/μM
[9] = Table 4, Ki/ATP, avg, read-out: Staph ligase Ki/ATP (uM) avg
[10] = E. coli ligase Ki/ATP (uM) avg, Table 4, Ki/ATP, avg
[11] = Table 3, Ki/ATP, avg, read-out: Staph ligase Ki/ATP (uM) avg
[12] = E. coli ligase Ki/ATP (uM) avg, Table 3, Ki/ATP, avg

Chain of Staph ligase (D-Ala-D-Ala ligase) (Q5HEB7 whole entry): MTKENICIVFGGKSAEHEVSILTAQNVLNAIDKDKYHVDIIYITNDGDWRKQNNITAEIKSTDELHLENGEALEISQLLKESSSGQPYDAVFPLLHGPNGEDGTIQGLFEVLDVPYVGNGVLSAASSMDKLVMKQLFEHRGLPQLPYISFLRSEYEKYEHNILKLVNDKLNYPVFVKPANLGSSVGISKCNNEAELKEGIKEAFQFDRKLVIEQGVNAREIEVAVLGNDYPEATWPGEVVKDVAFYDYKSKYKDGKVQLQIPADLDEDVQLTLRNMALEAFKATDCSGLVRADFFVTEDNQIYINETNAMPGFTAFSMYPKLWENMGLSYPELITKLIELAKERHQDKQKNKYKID

CCOc1ccc2ccccc2c1CN(CCCCN)c1ncc2c(N)nc(N)nc2n1 [N7-(4-Amino-butyl)-N-7-(2-ethoxynaphthalen-1-ylmethyl)-pyrimido[4,5-d]pyrimidine-2,4,7-triamine]
Ki [1, 5]: 15 µM
Ki ([2]; Table 5): 0.52 µM
Ki ([3]; Table 5): 4.5 µM
Ki [4, 6]: 0.105 µM
Ki ([4]; Ki against the ligase isolated from E. coli): 0.102 µM

CCC(c1cccc2ccccc12)N(C)c1ncc2c(N)nc(N)nc2n1 (stereo not drawn) [—CH3|C2H5|R/S|H, N7-Methyl-N-7-(1-naphthalen-1-yl-propyl)-pyrimido[4,5-d]pyrimidine-2,4,7-triamine]
Ki [1, 7]: 4.6 µM
Ki ([4]; E. coli ligase (μM), Table 2): 0.452 µM

CC(Nc1ncc2c(N)nc(N)nc2n1)C(=O)Nc1ccc2ccccc2c1 (stereo not drawn)
Ki [4, 8]: 29 µM

CC1C(C)N(c2ncc3c(N)nc(N)nc3n2)C(C)C(C)N1c1ncc2c(N)nc(N)nc2n1 (stereo not drawn)
Ki [4, 8]: 2 µM

CCOc1ccc2ccccc2c1CN(CCC(=O)O)c1ncc2c(N)nc(N)nc2n1
Ki [1, 9]: 6.7 µM
Ki ([2]; Table 4): 3.7 µM
Ki ([3]; Table 4): 2.1 µM
Ki [4, 10]: 5.3 µM

CCOc1ccc2ccccc2c1CN(CCC(=O)NCCN)c1ncc2c(N)nc(N)nc2n1
S. aureus ligase activity (in words) [1]: single digit micromolar
Ki [1, 11]: 4.7 µM
Ki for H. influenzae ligase (in words) [2]: less than one micromolar
Ki ([2]; Table 3): 1 µM
S. pneumoniae ligase activity (in words) [3]: single digit micromolar
Ki ([3]; Table 3): 1.9 µM
Ki for E. coli ligase (in words) [4]: less than one micromolar
Ki [4, 12]: 0.7 µM

Nc1nc(N)c2cnc(N3C4CC3N4c3ccc(Cl)cc3)nc2n1
Ki [4, 8]: 12 µM

CCCN(c1ncc2c(N)nc(N)nc2n1)C(C)c1cccc2ccccc12 (stereo not drawn)
Ki [1, 5]: 58 µM
Ki ([2]; Table 5): 2.7 µM
Ki ([3]; Table 5): 439 µM
Ki [4, 6]: 2 µM

C[C@@H](c1cccc2ccccc12)N(CCC(=O)O)c1ncc2c(N)nc(N)nc2n1
Ki [1, 9]: 10 µM
Ki ([2]; Table 4): 5.7 µM
Ki ([3]; Table 4): 14.6 µM
Ki [4, 10]: 4.2 µM

Nc1nc(N)c2cnc(N[C@H]3CCN(Cc4ccccc4)C3)nc2n1
Ki [4, 8]: 13 µM

Nc1nc(N)c2cnc(CNC(=O)/C=C/c3ccccc3)nc2n1
Ki [4, 8]: 92 µM

Cc1ccc([C@@H](C)N(CC2CC2)c2ncc3c(N)nc(N)nc3n2)c2ccccc12 [—CH2CH(CH2)2|CH3|R|CH3]
Ki [1, 7]: 62 µM
Ki ([4]; E. coli ligase (μM), Table 2): 0.174 µM

Nc1nc(N)c2cnc(Nc3ccc(Cl)c(C(=O)NCc4cccs4)c3)nc2n1
Ki [4, 8]: 0.5 µM

Nc1nc(N)c2ccc(-c3ccccc3)nc2n1
Ki [4, 8]: 31 µM

CC(c1cccc2ccccc12)N(CCCCN)c1ncc2c(N)nc(N)nc2n1 (stereo not drawn) [drawing 41]
Ki [4, 8]: 0.13 µM

Nc1nc(N)c2cnc(NCCNC(=O)c3c(Cl)cccc3Cl)nc2n1
Ki [4, 8]: 12 µM

C[C@@H](c1cccc2ccccc12)N(C[C@@H](O)C(=O)O)c1ncc2c(N)nc(N)nc2n1 (racemic)
Ki [1, 9]: 7.8 µM
Ki [4, 10]: 0.611 µM

CN(Cc1cccc2ccccc12)c1ncc2c(N)nc(N)nc2n1
Ki [4, 8]: 3 µM

Nc1nc(N)c2cnc(/C=C/c3ccccc3)nc2n1
Ki [4, 8]: 14 µM

Nc1nc(N)c2nc(CNc3cc(Cl)cc(Cl)c3)cnc2n1
Ki [4, 8]: 1 µM

CCOc1ccc2ccccc2c1CN(CCC(=O)NCc1ccccn1)c1ncc2c(N)nc(N)nc2n1
Ki [1, 11]: 9.5 µM
Ki ([2]; Table 3): 0.267 µM
Ki ([3]; Table 3): 3.1 µM
Ki [4, 12]: 9.6 µM

CN(CCC=C1c2ccccc2CCc2ccccc21)c1ncc2c(N)nc(N)nc2n1
Ki [4, 8]: 9 µM
